# Measured values as given in patent publication US20220289753A1, “SHP2 INHIBITORS” (IRBM S.P.A., priority 2019, published 2022).
# Molecular target: T1, SHP-2 enzyme (Met1-Leu525) (Homo sapiens, UniProt Q06124)
# T1 construct: synthetized by Origene, Met1-Leu525, cat #TP750155; purchased Origene TP750155
# T1 sequence (Q06124 1-525): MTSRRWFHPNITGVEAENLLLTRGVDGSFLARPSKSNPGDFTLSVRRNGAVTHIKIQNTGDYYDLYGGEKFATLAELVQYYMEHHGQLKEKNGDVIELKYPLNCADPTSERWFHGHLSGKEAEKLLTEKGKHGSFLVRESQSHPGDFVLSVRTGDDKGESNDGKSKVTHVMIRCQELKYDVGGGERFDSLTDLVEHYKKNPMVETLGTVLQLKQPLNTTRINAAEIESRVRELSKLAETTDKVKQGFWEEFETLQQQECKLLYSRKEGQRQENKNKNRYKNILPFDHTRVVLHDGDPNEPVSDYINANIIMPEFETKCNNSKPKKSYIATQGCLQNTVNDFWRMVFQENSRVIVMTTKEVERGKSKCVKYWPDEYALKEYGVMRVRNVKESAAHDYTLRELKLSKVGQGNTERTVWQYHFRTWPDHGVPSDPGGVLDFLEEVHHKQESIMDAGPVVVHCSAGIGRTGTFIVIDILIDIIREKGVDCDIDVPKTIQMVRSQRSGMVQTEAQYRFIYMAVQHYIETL
# Test: SHP2 inhibition enzymatic assay (DiFMUP substrate, IRS1 peptide activation)
# Type: biochemical
# Conditions: SHP2 wt; activated by 500 nM IRS1 peptide; 75 μM DiFMUP substrate
# Method in brief: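 SHP-2 (Met1-Leu525, 0.5 nM final) preincubated 30 min with compounds and IRS1 activating peptide in HEPES pH 7.2 buffer with NaCl, KCl, EDTA, tween-20, 5 mM DTT. DiFMUP then added for 30 min at room temperature and fluorescence read. IC50 from four-parameter logistic fit of % inhibition.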
row,Compound,IC50
1,"CC1(N)CCN(c2nc3ncc(Sc4csc5ccccc45)nc3[nH]2)CC1 [Example 30, 1-(6-(benzo[b]thiophen-3-ylthio)-1H-imidazo[4,5-b]pyrazin-2-yl)-4-methylpiperidin-4-amine]",> 3 µM
2,"CN(C)c1ncccc1Sc1cnc2[nH]c(N3CCC4(CC3)Cc3ccccc3[C@H]4N)nc2n1 [Example 211, (S)-1′-(5-((2-(dimethylamino)pyridin-3-yl)thio)-1H-imidazo[4,5-b]pyrazin-2-yl)-1,3-dihydrospiro[indene-2,4′-piperidin]-1-amine]",< 0.5 µM
3,"Cc1cccc(Sc2cnc3[nH]c(N4CCC(C)(N)CC4)nc3n2)c1C [Example 39, 1-(5-((2,3-dimethylphenyl)thio)-1H-imidazo [4,5-b]pyrazin-2-yl)-4-methylpiperidin-4-amine]",< 0.5 µM
4,"CC1(N)CCN(c2nc3nc(Sc4cccc5c4C(=O)CC5)cnc3[nH]2)CC1 [Example 76, 7-((2-(4-amino-4-methylpiperidin-1-yl)-1H-imidazo[4,5-b]pyrazin-5-yl)thio)-2,3-dihydro-1H-inden-1-one]",0.5 to 3 µM
5,"CC1(N)CCN(c2nc3nc(Sc4cccnc4C(F)(F)F)cnc3s2)CC1 [Example 119, 4-methyl-1-(5-((2-(trifluoromethyl)pyridin-3-yl)thio)thiazolo[4,5-b]pyrazin-2-yl)piperidin-4-amine]",0.5 to 3 µM
6,"CC1(N)CCN(c2nc3nc(Sc4ccnc5ncccc45)cnc3[nH]2)CC1 [Example 105, 1-(5-((1,8-naphthyridin-4-yl)thio)-1H-imidazo[4,5-b]pyrazin-2-yl)-4-methylpiperidin-4-amine]",0.5 to 3 µM
7,"CC1(N)CCN(c2nc3nc(Sc4cccc(C5CC5)c4)cnc3[nH]2)CC1 [Example 46, 1-(5-((3-cyclopropylphenyl)thio)-1H-imidazo[4,5-b]pyrazin-2-yl)-4-methylpiperidin-4-amine]",0.5 to 3 µM
8,"NC1CCC2OC1CC2Nc1nc2nc(Sc3cccnc3C(F)(F)F)cnc2[nH]1 (stereo not drawn) [Example 109, N6-(5-((2-(trifluoromethyl)pyridin-3-yl)thio)-1H-imidazo[4,5-b]pyrazin-2-yl)-8-oxabicyclo[3.2.1]octane-2,6-diamine]",> 3 µM
9,"CC1(N)CCN(c2nc3ncc(Sc4cccc5ncccc45)nc3[nH]2)CC1 [Example 49, 4-methyl-1-(6-(quinolin-5-ylthio)-1H-imidazo[4,5-b]pyrazin-2-yl)piperidin-4-amine]",< 0.5 µM
10,"CC(C)(CNc1nc2nc(Sc3cccnc3C(F)(F)F)cnc2[nH]1)N1CCOCC1 [Example 87, N-(2-methyl-2-morpholinopropyl)-5-((2-(trifluoromethyl)pyridin-3-yl)thio)-1H-imidazo[4,5-b]pyrazin-2-amine]",> 3 µM
11,"CC1(N)CCN(c2nc3ncc(-c4cccc(Cl)c4Cl)nc3[nH]2)CC1 [Example 131, 1-[5-(2,3-Dichlorophenyl)-1H-imidazo[4,5-b]pyrazin-2-yl]-4-methylpiperidin-4-amine]",0.5 to 3 µM
12,"CC1(N)CCN(c2nc3nc(Sc4cccc(O)n4)cnc3[nH]2)CC1 [Example 66, 6-((2-(4-amino-4-methylpiperidin-1-yl)-1H-imidazo[4,5-b]pyrazin-5-yl)thio)pyridin-2-ol]",> 3 µM
13,"CC1(N)CCN(c2nc3nc(Sc4ccsc4Cl)cnc3[nH]2)CC1 [Example 73, 1-(5-((2-chlorothiophen-3-yl)thio)-1H-imidazo[4,5-b]pyrazin-2-yl)-4-methylpiperidin-4-amine]",< 0.5 µM
14,"OCCN1CCC(CNc2nc3nc(Sc4cccnc4C(F)(F)F)cnc3[nH]2)CC1 [Example 82, 2-(4-(((5-((2-(trifluoromethyl)pyridin-3-yl)thio)-1H-imidazo[4,5-b]pyrazin-2-yl)amino)methyl)piperidin-1-yl)ethan-1-ol]",> 3 µM
15,"Cc1nc(-c2cccc(Sc3cnc4[nH]c(N5CCC(C)(N)CC5)nc4n3)c2)cs1 [Example 48, 4-methyl-1-(5-((3-(2-methylthiazol-4-yl)phenyl)thio)-1H-imidazo[4,5-b]pyrazin-2-yl)piperidin-4-amine]",0.5 to 3 µM
